This passage reports EC50 results from patent publication US10759816B2, “Heterocyclic compounds as RSV inhibitors” (Enanta Pharmaceuticals, Inc., priority 2016, dated 2020).

In general, EC50 refers to the concentration at which the effect is half-maximal.

Structures are written as SMILES. Bounds are passed on as bounds.

This test concerns genotype A, "Long" strain RSV. The test can be described thus: RSV-A in vitro cytoprotection assay in HEp-2 cells (ATPlite readout of cell viability). The class given is cell-based, Human respiratory syncytial virus. The note with it: human respiratory syncytial virus, HEp-2, HEp-2 cells, genotype A “Long” strain RSV, cytoprotection; read-out: Human RSV-A (“Long” strain) EC50. In short, it runs like this:
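HEp-2 cells (8,000/well) given 2-fold compound dilutions in duplicate, then infected with RSV-A Long strain stock; viability read by ATPlite luminescence after 4 days. EC50 derived from cytoprotection; cytotoxicity measured on parallel uninfected plate.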
For orientation: ATP-based viability assays read luminescence as a measure of living cells.
For `O=C(NC1CC1)c1cc2c(s1)-c1ccccc1N(C(=O)c1cccc(N3CCOc4ccc(Cl)cc4C3)n1)CC2` [Example 279], the EC50 was < 400 nM.

For the molecule `COc1ccc2c(c1)CN(c1cccc(C(=O)N3CCc4cc(C(=O)NC5CC5)sc4-c4ccccc43)n1)CCO2` [Example 280], the EC50 was < 400 nM.

As to `O=C(NC1CC1)c1cc2c(s1)-c1ccccc1N(C(=O)c1cccc(N3CCOc4cc(Br)ccc4C3)n1)CC2` [Example 281], the EC50 was < 400 nM.

As for `COc1ccc2c(c1)OCCN(c1cccc(C(=O)N3CCc4cc(C(=O)NC5CC5)sc4-c4ccccc43)n1)C2` [Example 282], the 50% effective concentration (EC50) is < 400 nM.

With `O=C(NC1CC1)c1cc2c(s1)-c1ccccc1N(C(=O)c1cccc(N3CCS(=O)(=O)c4ccccc4C3)n1)CC2` [Example 283], the EC50 was < 400 nM.

Take `O=C(NC1CC1)c1cc2c(s1)-c1ccccc1N(C(=O)c1cccc(N3CCOCC4(CCOCC4)C3)n1)CC2` [Example 284]: the EC50 was < 400 nM.

With `O=C(NC1CC1)c1cc2c(s1)-c1ccccc1N(C(=O)c1cccc(N3CCOCC(C(=O)N4CCOCC4)C3)n1)CC2` (stereo not shown) [Example 285], the EC50 was > 800 nM.

Turning to `CN(Cc1ccccn1)c1cccc(C(=O)N2CCc3cc(C(=O)NC4CC4)sc3-c3ccccc32)n1` [Example 286], the EC50 was > 800 nM.

`COc1ccccc1CNc1cccc(C(=O)N2CCc3cc(C(=O)NC4CC4)sc3-c3ccccc32)n1` [Example 287]: the EC50 was > 800 nM.

In the case of `O=C(NC1CC1)c1cc2c(s1)-c1ccccc1N(C(=O)c1cccc(NCc3ccccn3)n1)CC2` [Example 288], the EC50 was > 800 nM.

`COc1ccccc1CN(C)c1cccc(C(=O)N2CCc3cc(C(=O)NC4CC4)sc3-c3ccccc32)n1` [Example 289]: the EC50 is > 800 nM.

Turning to `O=C(NC1CC1)c1cc2c(s1)-c1ccccc1N(C(=O)c1cccc(N[C@@H]3CCOC3)n1)CC2` [Example 290], the EC50 was > 800 nM.

Regarding `O=C(NC1CC1)c1cc2c(s1)-c1ccccc1N(C(=O)c1cccc(NCC3CCOC3)n1)CC2` (stereo not shown) [Example 291], the EC50 was > 800 nM.

`COc1ccccc1[C@H](C)Nc1cccc(C(=O)N2CCc3cc(C(=O)NC4CC4)sc3-c3ccccc32)n1` [Example 292]: the EC50 was > 800 nM.

In the case of `CC(C)(Nc1cccc(C(=O)N2CCc3cc(C(=O)NC4CC4)sc3-c3ccccc32)n1)c1ccccn1` [Example 293], the EC50 is > 800 nM.

Regarding `COc1ccc(CN(C)c2cccc(C(=O)N3CCc4cc(C(=O)NC5CC5)sc4-c4ccccc43)n2)cc1` [Example 294], the concentration for a half-maximal effect (EC50) was > 800 nM.

With `CN(Cc1cccnc1)c1cccc(C(=O)N2CCc3cc(C(=O)NC4CC4)sc3-c3ccccc32)n1` [Example 295], the EC50 was > 800 nM.

For `COc1cccc(CN(C)c2cccc(C(=O)N3CCc4cc(C(=O)NC5CC5)sc4-c4ccccc43)n2)c1` [Example 296], the EC50 was > 800 nM.

On to `O=C(NC1CC1)c1cc2c(s1)-c1ccccc1N(C(=O)c1ccc3ccc(N4CCOCC4)nc3c1)CC2` [Example 297], for which the EC50 was > 800 nM.

In the case of `O=C(NC1CC1)c1cc2c(s1)-c1ccccc1N(C(=O)c1ccc3ccc(N4CCOCC4)cc3n1)CC2` [Example 298], the EC50 was > 800 nM.

Consider `O=C(Nc1ccccc1)c1cc2c(s1)-c1ccccc1N(C(=O)c1cccc(N3CCOc4ccccc4C3)n1)CC2` [Example 299], for which the EC50 lay in the range of 400 to 800 nM.

Consider `O=C(Nc1ccccn1)c1cc2c(s1)-c1ccccc1N(C(=O)c1cccc(N3CCOc4ccccc4C3)n1)CC2` [Example 300], for which the half-maximal effective concentration (EC50) is > 800 nM.

For the molecule `Cc1cccnc1NC(=O)c1cc2c(s1)-c1ccccc1N(C(=O)c1cccc(N3CCOc4ccccc4C3)n1)CC2` [Example 301], the EC50 was < 400 nM.

Consider `Cn1ccnc1NC(=O)c1cc2c(s1)-c1ccccc1N(C(=O)c1cccc(N3CCOc4ccccc4C3)n1)CC2` [Example 302], for which the EC50 is > 800 nM.

With `O=C(Nc1ccc[nH]c1=O)c1cc2c(s1)-c1ccccc1N(C(=O)c1cccc(N3CCOc4ccccc4C3)n1)CC2` [Example 303], the EC50 was > 800 nM.

Take `O=C(Nc1cccc(=O)[nH]1)c1cc2c(s1)-c1ccccc1N(C(=O)c1cccc(N3CCOc4ccccc4C3)n1)CC2` [Example 304]: the EC50 is > 800 nM.

On to `O=C(NCc1ccccc1)c1cc2c(s1)-c1ccccc1N(C(=O)c1cccc(N3CCOc4ccccc4C3)n1)CC2` [Example 305], for which the EC50 is 400 to 800 nM.

As for `O=C(NCc1ccccn1)c1cc2c(s1)-c1ccccc1N(C(=O)c1cccc(N3CCOc4ccccc4C3)n1)CC2` [Example 306], the EC50 was < 400 nM.

Consider `O=C(NC1CCOCC1)c1cc2c(s1)-c1ccccc1N(C(=O)c1cccc(N3CCOc4ccccc4C3)n1)CC2` [Example 307], for which the EC50 is < 400 nM.

As for `CN1CCC(NC(=O)c2cc3c(s2)-c2ccccc2N(C(=O)c2cccc(N4CCOc5ccccc5C4)n2)CC3)CC1` [Example 308], the concentration for a half-maximal effect (EC50) was < 400 nM.

As to `O=C(N[C@@H]1CCOC1)c1cc2c(s1)-c1ccccc1N(C(=O)c1cccc(N3CCOc4ccccc4C3)n1)CC2` [Example 309], the EC50 is < 400 nM.

As for `O=C(N[C@H]1CCOC1)c1cc2c(s1)-c1ccccc1N(C(=O)c1cccc(N3CCOc4ccccc4C3)n1)CC2` [Example 310], the EC50 was < 400 nM.

As to `O=C(Nc1ccccc1)Nc1cc2c(s1)-c1ccccc1N(C(=O)c1cccc(N3CCOc4ccccc4C3)n1)CC2` [Example 311], the EC50 was > 800 nM.

In the case of `O=C(Nc1cc2c(s1)-c1ccccc1N(C(=O)c1cccc(N3CCOc4ccccc4C3)n1)CC2)NC1CC1` [Example 312], the EC50 was > 800 nM.

On to `O=C(Nc1cc2c(s1)-c1ccccc1N(C(=O)c1cccc(N3CCOc4ccccc4C3)n1)CC2)c1ccccc1` [Example 313], for which the EC50 lay in the range of 400 to 800 nM.

Regarding `O=C(Nc1cc2c(s1)-c1ccccc1N(C(=O)c1cccc(N3CCOc4ccccc4C3)n1)CC2)C1CC1` [Example 314], the EC50 was > 800 nM.

Consider `O=C(Nc1cc2c(s1)-c1ccccc1N(C(=O)c1cccc(N3CCOc4ccccc4C3)n1)CC2)NS(=O)(=O)c1ccccc1` [Example 315], for which the EC50 is > 800 nM.

Consider `O=C(Nc1cc2c(s1)-c1ccccc1N(C(=O)c1cccc(N3CCOc4ccccc4C3)n1)CC2)NS(=O)(=O)C1CC1` [Example 316], for which the EC50 was > 800 nM.

Consider `Cc1cccc(F)c1NS(=O)(=O)c1cc2c(s1)-c1ccccc1N(C(=O)c1cccc(N3CCCOCC3)n1)CC2` [Example 317], for which the EC50 is > 800 nM.

As for `O=C(c1cccc(N2CCCOCC2)n1)N1CCc2cc(S(=O)(=O)NC3CCOCC3)sc2-c2ccccc21` [Example 318], the EC50 is > 800 nM.

With `O=C(NC1CC1)c1cc2c(s1)-c1ccccc1N(C(=O)c1cccc(N3CCOc4ccccc43)n1)CC2` [Example 319], the EC50 is > 800 nM.

In the case of `O=C(NC1CC1)c1cc2c(s1)-c1ccccc1N(C(=O)c1cccc(N3CCOCc4ccccc43)n1)CC2` [Example 320], the concentration for a half-maximal effect (EC50) was > 800 nM.

As for `COCC(C)(C)CNc1cccc(C(=O)N2CCc3cc(C(=O)NC4CC4)sc3-c3ccccc32)n1` [Example 321], the EC50 was > 800 nM.

For the molecule `COc1ccccc1C(C)(C)Nc1cccc(C(=O)N2CCc3cc(C(=O)NC4CC4)sc3-c3ccccc32)n1` [Example 322], the EC50 is > 800 nM.

Regarding `Cc1cccc(F)c1NC(=O)c1cc2c(s1)-c1ccccc1N(C(=O)c1cccc(N3CCCOCC3)n1)CC2` [Example 323], the EC50 was < 400 nM.

For `CNC(=O)CCN(C)c1cccc(C(=O)N2CCc3cc(C(=O)Nc4c(C)cccc4F)sc3-c3ccccc32)n1` [Example 324], the EC50 was 400 to 800 nM.
